Experimental data published in US20100036088A1, “Selective poly-N-substituted glycine antibiotics” (priority 2008, published 2010).
Square brackets hold non-standard residues; d marks the D form. Peptide text beside a SMILES is read from it. Gly(N-CH2CH2-imidazol-4-yl) = O=C(O)CNCCc1c[nH]cn1; Nspe = C[C@H](NCC(=O)O)c1ccccc1; Nlys = NCCCCNCC(=O)O

How the values were obtained:
[1] = tested on: E. coli JM109; type: cell-based
From the text: (§1) An initial set of 15 ampetoid analogs was synthesized to determine whether peptoids are affected by structural and sequence modifications in a manner consistent with AMP activities. The designs for ampetoids in this library were derived from two antibacterial and selective amphipathic dodecamers, 1 and 2. Peptoid 1 [H-(Nlys-Nspe-Nspe)4—NH2] is composed of 2/3 Nspe, the peptoid analog of phenylalanine, and 1/3 Nlys, the peptoid analog of lysine (see FIG. 1 for the structures of representative peptoid monomers and corresponding N-substituents). Peptoid 2 [H-(Nlys-Nssb-Nspe)4—NH2] contains 1/3 isoleucine-like Nssb monomers in place of Nspe. The variant sequences were designed to effect changes in chirality, length, hydrophobicity, charge, and amphipathicity. All of these compounds were tested for antibacterial activity against representative BSL1 Gram-negative (E. coli JM109) and Gram-positive (B. subtilis BR151) bacterial strains. As an initial measure of selectivity, the lytic activity of the peptoids was determined against human erythrocytes. Table 1 summarizes the sequences synthesized, the solvent composition at RP-HPLC elution as a relative measure of molecular hydrophobicity, and antibacterial and hemolytic activities.
(§2) Antibacterial assays. MICs were determined according to CLSI M7-A6 protocols in a 96-well microtiter plate. In test wells, 50 μL bacterial inoculum (5×10^5 CFU/ml) in Mueller-Hinton broth (MHB) was added to 50 μL peptoid solution in MHB (prepared by 1:2 serial dilutions). Positive controls contained 50 μL inoculum and 50 μL MHB without peptoid. […] MIC values reported were reproducible between three independent experimental replicates, each consisting of two parallel trials. Broad-spectrum antimicrobial susceptibility testing was performed against BSL2 pathogens by Nova Biologicals, Inc. (Conroe, Tex.).

[2] = tested on: human erythrocytes; assay: Hemolysis assay; type: cell-based
Procedure, shortened: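 Human erythrocytes from fresh heparinised blood, 20 vol % in PBS pH 7.4, mixed 1:1 with 2-fold serial peptoid dilutions; PBS as 0% and 0.2 vol % Triton X-100 as 100% hemolysis. Incubated 1 h at 37 °C, diluted, centrifuged 1200 g for 15 min; supernatant A350 read.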

[3] = tested on: A549 lung epithelial cells; assay: MTS assay, metabolic inhibition
Experimental: The biocompatibility of selected oligomers with A549 lung epithelial cells was evaluated using the MTS [3-(4,5-dimethylthiazol-2-yl)-5-(3-carboxymethoxyphenyl)-2-(4-sulfophenyl)-2H-tetrazolium] assay.
MTS Assays. A549 carcinoma-derived lung epithelial cells (ATTC CCL-185) were cultured in Ham's F12K media (ATTC, Manassas, Va.). A peptoid solution plate (100 μL/well) was prepared by serial dilution of aqueous peptoid stocks in media. Peptoid solutions were transferred onto a 96-well plate of day-old cell monolayers containing 100 μL/well media with ˜5000 cells/well. MTS reagent (Promega Corporation, Madison, Wis.) (40 μL/well) was added to each well and the plate was incubated at 37° C. for 3 h, after which absorbance at 490 nm was determined. Percent inhibition was determined as [1−(A−Atest blank)/(Acontrol−Ablank)]×100, where A is the absorbance of the test well and Acontrol the average absorbance of wells with cells exposed to media and MTS (no peptoid). Atest blank (media, MTS, and peptoid) and Ablank (media and MTS) were background absorbances measured in the absence of cells. The average of six replicates are reported, and error bars show one standard deviation.

[4] = tested on: B. subtilis (ATCC 6633); type: cell-based; details: ATCC 6633
Procedure, shortened: (§3)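 MICs by broth microdilution per CLSI M7-A6 in cation-adjusted Mueller-Hinton broth, using 2:1 serial dilutions of peptoid and a bacterial inoculum of 1×10^6 CFU/mL. Values reproducible over three experiments, each with two parallel trials.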

[5] = tested on: E. coli (ATCC 35218); type: cell-based; details: ATCC 35218
Procedure, shortened: as §3

[6] = tested on: Staphyloccus aureus (ATCC #25923); assay: Murine intraperitoneal infection model; type: in vivo; details: mouse, 4 mg/kg I.P.; eleven mice treated with 1-Nhis6,12
Experimental: Using a murine peritoneal injection mouse model, the ability of peptoids to treat infection was evaluated in vivo. The results from three separate studies of peptoid 1 and two of peptoid 1-Nhis6,12 against saline treated controls are shown in FIG. 7. The horizontal line represents the geometric mean of each population.
Murine intraperitoneal infection model. Bacteria was prepared by inoculating 5 mL of MHB with a single colony of Staphyloccus aureus (ATCC #25923) from a freshly streaked plate and grown overnight at 37 C. The following morning, the bacteria was subcultured by diluting 1/3 in MHB and grown for approximately 1.5 hours. The bacteria were then diluted 10-fold in a 5% mucin in PBS solution and thoroughly mixed. A sample was reserved to later determine the amount of bacteria the mice received.
Mice were weighed, marked, and injected I.P. with 200 uL of S. aureus inoculum. Four hours post infection, mice were treated I.P. with 4 mg/kg peptoid (˜100 ug per mouse). The infection is allowed to proceed overnight. Mice were euthanized by CO2 asphyxiation after 24 hours, and the peritoneal cavity was exposed and lavaged with 5 mL PBS. The lavage was mixed and reserved on ice until plating. […] Colonies were counted the following day, and the CFU/ml of each sample was calculated. […]

[7] = tested on: B. subtilis BR151; type: cell-based; details: Table 1
From the text: as §1, §2

Row | Compound | MICs ([1]; JM109) [µM] | HD10 [2] | HD50 [2] | HD10 (10% hemolytic dose) ([2]; red cells of human, 1 h) | HD50 (50% hemolytic dose) ([2]; red cells of human, 1 h) | ID10 relative to that of pexiganan [3] [times] | B. subtilis MIC [4] [µM] | E. coli MIC [5] [µM] | mice that died prematurely during the exposure period [6] | B. subtilis MIC [7] [µM] | E. coli MIC ([1]; Table 1, E. coli JM109) [µM] | HD10 (10% hemolytic dose) ([2]; Table 1, human erythrocytes) [µM] | HD50 (50% hemolytic dose) ([2]; Table 1, human erythrocytes) [µM] | cytotoxicity (in words) ([3]; A549 cells, MTS assay, FIG. 2)
1 | C[C@@H](c1ccccc1)N(CC(=O)N(CCc1cnc[nH]1)CC(=O)N(CCCCN)CC(=O)N(CC(=O)N(CC(=O)N(CCCCN)CC(=O)N(CC(=O)N(CCc1cnc[nH]1)CC(N)=O)[C@@H](C)c1ccccc1)[C@@H](C)c1ccccc1)[C@@H](C)c1ccccc1)C(=O)CN(CCCCN)C(=O)CN(C(=O)CN(C(=O)CNCCCCN)[C@@H](C)c1ccccc1)[C@@H](C)c1ccccc1 [1-Nhis6,12] (H-[Nlys][Nspe][Nspe][Nlys][Nspe][Gly(N-CH2CH2-imidazol-4-yl)][Nlys][Nspe][Nspe][Nlys][Nspe][Gly(N-CH2CH2-imidazol-4-yl)]-NH2) | < 7 | >110/>110 μM | >110/>110 μM | >110/>110 μM | >110/>110 μM | 20 | 1.6 | >50 | eight |  |  |  |  | 
2 | C[C@H](c1ccccc1)N(CC(N)=O)C(=O)CN(C(=O)CN(CCCCN)C(=O)CN(C(=O)CN(C(=O)CN(CCCCN)C(=O)CN(C(=O)CN(C(=O)CN(CCCCN)C(=O)CN(C(=O)CN(C(=O)CNCCCCN)[C@H](C)c1ccccc1)[C@H](C)c1ccccc1)[C@H](C)c1ccccc1)[C@H](C)c1ccccc1)[C@H](C)c1ccccc1)[C@H](C)c1ccccc1)[C@H](C)c1ccccc1 [1enantiomer] |  |  |  |  |  |  |  |  |  | 0.88 | 3.5 | 16 | 86 | 
3 | C[C@@H](c1ccccc1)N(CC(N)=O)C(=O)CN(C(=O)CN(CCCCN)C(=O)CN(C(=O)CN(C(=O)CN(CCCCN)C(=O)CN(C(=O)CN(C(=O)CN(CCCCN)C(=O)CN(C(=O)CN(C(=O)CN(CCCCN)C(=O)CN(C(=O)CN(C(=O)CNCCCCN)[C@@H](C)c1ccccc1)[C@@H](C)c1ccccc1)[C@@H](C)c1ccccc1)[C@@H](C)c1ccccc1)[C@@H](C)c1ccccc1)[C@@H](C)c1ccccc1)[C@@H](C)c1ccccc1)[C@@H](C)c1ccccc1)[C@@H](C)c1ccccc1 [115 mer, H-(Nlys-Nspe-Nspe)5-NH2] |  |  |  | 3 µM | 19 µM |  |  |  |  |  |  |  |  | no worse than pexiganan
